Data taken from ChEMBL document CHEMBL3259793, “Novel cycloalkenepyrazoles as inhibitors of bub1 kinase” (ACS Med Chem Lett, 2014).

Molecular target: Mitotic checkpoint serine/threonine-protein kinase BUB1 (Homo sapiens, UniProt O43683)
Assay: Inhibition of Bub1 kinase (unknown origin) by TR-FRET kinase assay

Mitotic checkpoint serine/threonine-protein kinase BUB1, sequence (O43683 whole entry): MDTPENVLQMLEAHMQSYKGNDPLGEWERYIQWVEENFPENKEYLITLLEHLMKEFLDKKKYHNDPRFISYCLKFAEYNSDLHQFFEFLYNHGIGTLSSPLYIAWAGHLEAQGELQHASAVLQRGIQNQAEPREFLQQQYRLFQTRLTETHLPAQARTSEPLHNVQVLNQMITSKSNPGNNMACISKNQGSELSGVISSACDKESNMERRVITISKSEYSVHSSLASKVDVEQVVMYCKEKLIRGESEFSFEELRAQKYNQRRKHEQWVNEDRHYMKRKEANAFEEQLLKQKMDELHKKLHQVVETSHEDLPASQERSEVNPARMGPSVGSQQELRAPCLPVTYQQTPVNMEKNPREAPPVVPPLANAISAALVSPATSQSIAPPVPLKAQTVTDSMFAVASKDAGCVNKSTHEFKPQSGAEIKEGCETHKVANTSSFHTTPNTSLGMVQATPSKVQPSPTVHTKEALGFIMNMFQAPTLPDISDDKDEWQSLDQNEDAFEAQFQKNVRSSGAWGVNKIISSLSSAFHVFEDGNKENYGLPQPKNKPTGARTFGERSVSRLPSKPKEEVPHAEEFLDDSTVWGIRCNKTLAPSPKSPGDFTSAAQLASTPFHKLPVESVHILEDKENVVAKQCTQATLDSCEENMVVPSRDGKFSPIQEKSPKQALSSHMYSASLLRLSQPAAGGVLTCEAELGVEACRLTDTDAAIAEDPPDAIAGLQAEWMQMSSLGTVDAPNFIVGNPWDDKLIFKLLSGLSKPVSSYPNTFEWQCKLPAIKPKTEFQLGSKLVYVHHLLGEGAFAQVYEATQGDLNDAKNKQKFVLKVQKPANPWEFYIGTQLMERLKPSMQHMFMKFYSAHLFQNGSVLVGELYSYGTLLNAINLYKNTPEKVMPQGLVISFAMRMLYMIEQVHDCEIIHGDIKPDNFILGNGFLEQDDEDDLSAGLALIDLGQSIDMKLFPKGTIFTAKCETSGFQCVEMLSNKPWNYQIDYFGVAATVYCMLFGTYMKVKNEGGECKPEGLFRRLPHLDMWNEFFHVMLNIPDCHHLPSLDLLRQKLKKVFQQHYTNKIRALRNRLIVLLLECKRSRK

- IC50: 500 nM
Compound: CCOC(=O)c1cnccc1Nc1nc(-c2nn(Cc3ccccc3F)c3c2CCC3)ncc1Oc1ccccc1C(=O)OCC
